Reference: patent EP2329817A1, “Retinoic acid receptor antagonists, miR-10a inhibitors and inhibitors of HOXB1 or HOXB3 repressors for treating pancreatic cancer” (Ernst-Moritz-Arndt-Universität Greifswald, priority 2009, dated 2011)
Values joined by “and” are separate entries in the source; they are usually repeats but may differ in a detail not shown here. Equal values may be shown once.

Legend:
[1] = tested on: PaTu-S cells; test: Zebrafish embryo xenotransplantation: invasion and metastatic behaviour of pretreated PaTu-S cells; assay type: in vivo, human
Procedure: (§1) Zebrafish (Danio rerio) (Tuebingen line, AIB strain (Albinos) and Tg (fli1:eGFP) were handled in compliance with local animal care regulations and standard protocols of the Netherlands and Germany. Fish were kept at 28°C in aquaria with day/night light cycles (10 h dark versus 14 h light periods). The developing embryos were kept in an incubator at constant temperatures.
(§2) The selective RARα antagonist Ro-41-5253 was purchased from Biomol International, dissolved in DMSO and cells were treated overnight prior to injections at a final concentration of 200 nM (50% inhibition at 60nM)^14,15. Retinoic acid (ATRA, Sigma) was added to cells ON at a final concentration of 1 µM.
(§3) Cells were stained with CM-Dil (red fluorescence) at a 1:1000 dilution according to the manufacturers protocol (Vybrant, Invitrogen). Cells were suspended in 67% DPBS for injection into embryos. 2dpf zebrafish embryos were dechorionated and tranquilized with tricaine (Sigma). An injection needle (15µm diameter) with a manual injector (Eppendorf; Celltram Vario) was used to inject ∼200 cells into the yolk sac of 2dpf zebrafish embryos. On average 80 embryos were injected for each treatment and embryos with detectable cell scatter 2 h after the transfer (and therefore presumably due to the transfer procedure) were excluded from further analysis. Presence of cells was checked after 2 h incubation at 31°C and embryos were subsequently kept at 35°C. We defined metastasis based on the number of fluorescent cells that were detected outside the yolk sac 2 days after the transfer. Presence of 5 or more cells was considered "metastasised" and percentages of metastasised fish in each experiment were counted. The occurence of micro-metastasis is indicated by cell clusters of ≥4 cells presumably originating from cell division. PaTu-S cells and ASPC1 cells were transfected ON with indicated concentrations of miR-10a siRNA in the presence of ICA-Fectin TM442 (Eurogentec, Belgium). Whole cell lysates were prepared 36h post-transfection and 40 µg of total lysates were separated on 7.5% PAA-gels and blotted with anti E-cadherin, α-catenin, β-catenin (all mAbs, Transduction Labs) and actin antibodies (mAb Sigma-Aldrich, Germany).
(§4) Morpholino antisense oligonucleotides were obtained from Gene Tools, LLC (OR, USA) and used as previously described^19. The miR-10a antisense Morpholino sequence is: […]. Standard control Morpholino was […]. Both miR-10a and control Morpholinos were fluorescein labeled. The siRNAs for human HOXB1, human HOXB3 and human RARα were purchased from Santa Cruz Biotechnology (HOXB1: sc-38686, HOXB3: sc-38690 and RARα: sc-29465). EndoPorter (Gene Tools, LLC) was used to deliver Morpholinos and siRNAs into cells and efficiencies for Morpholinos were checked by fluorescence microscopy to be >98%. For the miR-10a siRNA, the sense strand corresponds to […]. The sequence of control siRNA (miR-196a) was […] with the corresponding antisense sequence). 30 µl of each siRNA oligo (50 µM) were annealed by gradually cooling from 98°C to 20°C in a volume of 75 µl annealing buffer (50 mM Tris, pH 7.8, 100 mM NaCl RNAse free). The effect of miR-10a Morpholinos on miR-10a function was tested with a sensor construct: pCS2+ EGFP 4x miR-10 AS containing 4 copies of a miR-10a antisense sequence.

[2] = tested on: PaTu-T cells; test: Zebrafish embryo xenotransplantation: invasion and metastatic behaviour of pretreated PaTu-T cells; assay type: in vivo, human
Procedure: as §1, §2, §3, §4

[3] = tested on: PaTu-T cells; test: In vitro migration assay (scratch assay); assay type: cell-based, human; conditions: compared to DMSO control
Procedure: We used the selective RARα antagonist Ro-41-5253; to analyze its anti-migratory activity in an in vitro migration assay ("scratch assay") and in the zebrafish xenotransplantation model, respectively. […] Similar results were obtained when PaTu-T cells were treated with RAR -specific siRNAs (Supplemental Table 1 and Supplemental Fig. 1).
PaTu-T cells were incubated as indicated, with DMSO (Co), 200 nM Ro-41-5253 (RARα inh), control-Morpholino, miR-10a Morpholino, miR-196 siRNA (Co), or RARα siRNA and PaTu-S cells were co-incubated with 1 µM retinoic acid (RA) and control siRNA, RARα siRNA or Ro-415253 and miR-10a expression was evaluated by Northern blot analysis (A). […] RT-PCR control of GAPDH was used as a loading control (not shown). Dose response curves for RA and the RARα antagonist and the RT-PCR control for RARα siRNA treatment are shown in Supplemental Fig. 1. The effect of Ro-415253 on cell migration was analysed in an in vitro migration assay in PaTu-T cells. […] An actin re-blot confirmed equal loading.

[4] = Experiment 1, number of embryos (equals the Day 1 total)
[5] = Experiment 1, Day 1, number of embryos
[6] = Experiment 1, Day 2, number of embryos
[7] = Experiment 1, Day 3, number of embryos
[8] = Experiment 1, summary line, percentage in brackets (of embryos alive)
[9] = Experiment 2, number of embryos (equals the Day 1 total)
[10] = Experiment 2, Day 1, number of embryos
[11] = Experiment 2, Day 2, number of embryos
[12] = Experiment 2, Day 3, number of embryos
[13] = Experiment 2, summary line, percentage in brackets (of embryos alive)

CC1=C(/C=C/C(C)=C/C=C/C(C)=C/C(=O)O)C(C)(C)CCC1 [RA, all trans retinoic acid]
total >5 [1, 4]: 14
Migration 5 to 20 [1, 5]: 11
Migration <5 [1, 5]: 1
Migration >20 [1, 5]: 3
total >5 [1, 5]: 14
Migration 5 to 20 [1, 6]: 10
Migration <5 [1, 6]: 0
Migration >20 [1, 6]: 4
total >5 [1, 6]: 14
Migration 5 to 20 [1, 7]: 19
Migration <5 [1, 7]: 0
Migration >20 [1, 7]: 3
total >5 [1, 7]: 12
total >5 [1, 8]: 24.1%
total >5 [1, 9]: 20
Migration 5 to 20 [1, 10]: 15
Migration <5 [1, 10]: 1
Migration >20 [1, 10]: 5
total >5 [1, 10]: 20
Migration 5 to 20 [1, 11]: 13
Migration <5 [1, 11]: 1
Migration >20 [1, 11]: 4
total >5 [1, 11]: 17
Migration 5 to 20 [1, 12]: 12
Migration <5 [1, 12]: 1
Migration >20 [1, 12]: 5
total >5 [1, 12]: 17
total >5 [1, 13]: 31.2%
Average % (observed metastasised embryos) ([1]; Table 1, pretreated PaTu-S cells transplanted into zebrafish embryos, average of 2-4 experiments): 27.7%
%migration, Average ([1]; average of experiments, PaTu-S): 27.7%
%migration ([1]; single experiments, PaTu-S): 24.1% and 31.2%

CCCCCCCOc1cc2c(cc1/C(C)=C/c1ccc(C(=O)O)cc1)C(C)(C)CCS2(=O)=O [Ro-41-5253, Benzoic acid, 4-(2-(7-(heptyloxy)-3,4-dihydro-4,4-dimethyl-2H-1-benzothiopyran-6-yl)-1-propenyl)-, S,S-dioxide, (E)]
total >5 [2, 4]: 1
Migration 5 to 20 [2, 5]: 1
Migration <5 [2, 5]: 0
Migration >20 [2, 5]: 0
total >5 [2, 5]: 1
Migration 5 to 20 [2, 6]: 0
Migration <5 [2, 6]: 0
Migration >20 [2, 6]: 0
total >5 [2, 6]: 0
Migration 5 to 20 [2, 7]: 0
Migration <5 [2, 7]: 0
Migration >20 [2, 7]: 0
total >5 [2, 7]: 0
total >5 [2, 8]: 1.4%
total >5 [2, 9]: 2
Migration 5 to 20 [2, 10]: 2
Migration <5 [2, 10]: 0
Migration >20 [2, 10]: 0
total >5 [2, 10]: 2
Migration 5 to 20 [2, 11]: 2
Migration <5 [2, 11]: 0
Migration >20 [2, 11]: 0
total >5 [2, 11]: 2
Migration 5 to 20 [2, 12]: 0
Migration <5 [2, 12]: 0
Migration >20 [2, 12]: 0
total >5 [2, 12]: 0
total >5 [2, 13]: 2.9%
Average % (observed metastasised embryos) ([2]; Table 1, pretreated PaTu-T cells transplanted into zebrafish embryos, average of 2-4 experiments): 2.2%
%migration, Average ([2]; average of experiments, PaTu-T): 2.2%
%migration ([2]; single experiments, PaTu-T, listed as RARαinhibitor): 1.4% and 2.9%
cell migration [3]: significant inhibition
cell migration ([3]; listed as RARα antagonist): significantly decreased
